Test results as given in patent publication US20180318311A1, “TRICYCLIC 2-QUINOLINONES AS ANTIBACTERIALS” (priority 2017, published 2018).
Converted amounts (≈) assume the structure as drawn. Where two headings read alike, the source gives them in different places.

Key:
Type in all cases: cell-based
[1] = tested on: S. aureus NB01006-AVR005, gyrA (S84L), grlA (580F) and grlB (E471K); experiment: microbe, parasite or virus in culture; conditions: Staphylococcus aureus, 20 h, read-out: Antibacterial activity (MIC) NB01006-AVR005
Protocol: (§1) Bacterial isolates were cultivated from −80° C. frozen stocks by overnight passages at 35° C. in ambient air on Mueller-Hinton agar plates (MHA, Becton Dickinson, Franklin Lakes, NB) with the exception of S. pneumoniae which was grown overnight at 35° C. in the presence of 5% CO2 on blood agar plates (tryptic soy agar with 5% sheep blood (Thermo Scientific, Waltham, Mass.) . The following quality control and wild type strains were obtained from the American Type Culture Collection (ATCC; Rockville, Md.) and are coded in the Novartis strain collection as indicated: E. coli ATCC 25922 (NB27001), E. faecalis ATCC 29212 (NB04001), S. aureus ATCC 49951 (NB01006) and S. pneumoniae ATCC […] (NB07001). […] P. aeruginosa NB52019, obtained from Queen's University (Kingston, Ontario, Canada), is the wild-type PAO1 strain.
(§2) Minimal Inhibitory Concentrations (MIC) were determined by the broth microdilution method in accordance with Clinical and Laboratories Institute (CLSI) guidelines. In brief, fresh bacterial overnight cultures were re-suspended in sterile saline, adjusted to a 0.5 McFarland turbidity standard and then diluted to yield a final inoculum of approximately 5×10^5 colony-forming units (CFU)/mL. All bacterial suspensions were prepared in cation adjusted Mueller-Hinton Broth (CAMHB; Becton Dickinson, Franklin Lakes, N.J.;) with the exception of S. pneumoniae which was prepared in CAMHB supplemented with 5% lysed horse blood (Hardy Diagnostics, Santa Maria, Calif.). Two-fold serial dilutions of compounds were prepared in 100% dimethyl sulfoxide (DMSO) at 100-fold the highest final assay concentration; the resulting dilution series of compounds were diluted 1:10 with sterile water. Ten μL of the drug dilution series in 10% DMSO was transferred to microtiter wells and 90 μL of bacterial suspension was inoculated into the wells. All inoculated microdilution trays were incubated in ambient air at 35° C. for 20 hours. Following incubation, assay plates were read in a microtiter plate reader at 600 nm and visually inspected to confirm the MIC endpoint well with the OD value. The lowest concentration of the compound that prevented visible growth was recorded as the MIC (in μg/mL).

[2] = tested on: S. aureus NB01080 fluoroquinolone-resistant clinical isolate; experiment: MIC by broth microdilution, S. aureus NB01080; conditions: Staphylococcus aureus, CAMHB, 35° C., 20 hours, read-out: Antibacterial activity (MIC) NB01080
Protocol: as §1, §2

[3] = tested on: E. faecalis ATCC 29212 (NB04001); experiment: MIC by broth microdilution, E. faecalis NB04001; conditions: Enterococcus faecalis, ATCC29212, CAMHB, 35° C., 20 hours, read-out: Antibacterial activity (MIC) NB04001
Protocol: as §1, §2

[4] = tested on: S. aureus ATCC 49951 (NB01006); experiment: MIC by broth microdilution, S. aureus NB01006; conditions: Staphylococcus aureus, ATCC49951, CAMHB, 35° C., 20 hours, read-out: Antibacterial activity (MIC) NB01006
Protocol: as §1, §2

[5] = tested on: S. pneumoniae ATCC 25922 (NB07001); experiment: MIC by broth microdilution, S. pneumoniae NB07001; conditions: Streptococcus pneumoniae, read-out: Antibacterial activity (MIC) NB07001
Protocol: as §1, §2

[6] = tested on: P. aeruginosa NB52019, wild-type PAO1 strain; experiment: MIC by broth microdilution, P. aeruginosa NB52019; conditions: Pseudomonas aeruginosa, CAMHB, 35° C., 20 hours, read-out: Antibacterial activity (MIC) NB52019
Protocol: as §1, §2

[7] = tested on: E. coli ATCC 25922 (NB27001); experiment: MIC by broth microdilution, E. coli NB27001; conditions: Escherichia coli, ATCC25922, CAMHB, 35° C., 20 hours, read-out: Antibacterial activity (MIC) NB27001
Protocol: as §1, §2

SMILES	MIC [1] [µg/mL]	MIC [2] [µg/mL]	MIC [3] [µg/mL]	MIC [4] [µg/mL]	MIC ([5]; ATCC25922, 20 h) [µg/mL]	MIC [6] [µg/mL]	MIC [7] [µg/mL]	MIC ([5]; ATCC25922, S. pneumoniae, CAMHB supplemented with 5% lysed horse blood, 35° C., 20 hours) [µg/mL]
NC1([C@@H]2CCN(c3c(F)cc4cc(C(=O)O)c(=O)n5c4c3OC[C@@H]5CF)C2)CC1 [Example 4, (R)-10-((R)-3-(1-aminocyclopropyl)pyrrolidin-1-yl)-9-fluoro-3-(fluoromethyl)-5-oxo-2,3-dihydro-5H-[1,4]oxazino[2,3,4-ij]quinoline-6-carboxylic acid]	1 to 32 (≈ 2.47 to 78.9 µM)	1 to 32 (≈ 2.47 to 78.9 µM)	1 to 32 (≈ 2.47 to 78.9 µM)	< 1	< 1	> 32	1 to 32 (≈ 2.47 to 78.9 µM)	–
C[C@H]1COc2c(N3CC4CC4(N)C3)ccc3cc(C(=O)O)c(=O)n1c23 (stereo partly drawn) [Example 12.6, (3S)-10-(1-amino-3-azabicyclo[3.1.0]hexan-3-yl)-3-methyl-5-oxo-2,3-dihydro-5H-[1,4]oxazino[2,3,4-ij]quinoline-6-carboxylic acid]	> 32	1 to 32 (≈ 2.93 to 93.7 µM)	1 to 32 (≈ 2.93 to 93.7 µM)	1 to 32 (≈ 2.93 to 93.7 µM)	1 to 32 (≈ 2.93 to 93.7 µM)	> 32	1 to 32 (≈ 2.93 to 93.7 µM)	–
C[C@H]1COc2c(N3CC4CCCC4(CN)C3)c(F)cc3cc(C(=O)O)c(=O)n1c23 (single isomer, unassigned) [Example 1.50]	1 to 32 (≈ 2.49 to 79.7 µM)	1 to 32 (≈ 2.49 to 79.7 µM)	1 to 32 (≈ 2.49 to 79.7 µM)	< 1	< 1	> 32	> 32	–
C[C@H]1COc2c(N3CC4CC4(N)C3)c(F)cc3cc(C(=O)O)c(=O)n1c23 (stereo partly drawn) [Example 1.3, (3S)-10-(1-amino-3-azabicyclo[3.1.0]hexan-3-yl)-9-fluoro-3-methyl-5-oxo-2,3-dihydro-5H-[1,4]oxazino[2,3,4-ij]quinoline-6-carboxylic acid]	1 to 32 (≈ 2.78 to 89 µM)	1 to 32 (≈ 2.78 to 89 µM)	1 to 32 (≈ 2.78 to 89 µM)	< 1	1 to 32 (≈ 2.78 to 89 µM)	> 32	1 to 32 (≈ 2.78 to 89 µM)	–
CN[C@@H](C)[C@@H]1CCN(c2c(F)cc3cc(C(=O)O)c(=O)n4c3c2OC[C@@H]4C)C1 [Example 1.36, (S)-9-fluoro-3-methyl-10-((R)-3-((S)-1-(methylamino)ethyl)pyrrolidin-1-yl)-5-oxo-2,3-dihydro-5H-[1,4]oxazino[2,3,4-ij]quinoline-6-carboxylic acid]	1 to 32 (≈ 2.57 to 82.2 µM)	< 1	< 1	< 1	< 1	> 32	1 to 32 (≈ 2.57 to 82.2 µM)	–
CC1Cc2c(N3CCNCC3)c(F)cc3cc(C(=O)O)c(=O)n1c23 (centres unmarked) [Example 9.3, 8-fluoro-2-methyl-4-oxo-9-(piperazin-1-yl)-1,2-dihydro-4H-pyrrolo[3,2,1-ij]quinoline-5-carboxylic acid]	> 32	> 32	> 32	> 32	–	> 32	1 to 32 (≈ 3.02 to 96.6 µM)	> 32
C[C@H]1COc2c(N3CC[C@@H](C4(N)CC4)C3)c(F)cc3c(CN)cc(=O)n1c23 [Example 7.9, (S)-10-((R)-3-(1-aminocyclopropyl)pyrrolidin-1-yl)-7-(aminomethyl)-9-fluoro-3-methyl-2,3-dihydro-5H-[1,4]oxazino[2,3,4-ij]quinolin-5-one]	< 1	1 to 32 (≈ 2.68 to 85.9 µM)	< 1	< 1	< 1	1 to 32 (≈ 2.68 to 85.9 µM)	< 1	–
C[C@@H]1Cn2c(=O)c(C(=O)O)cc3cc(F)c(N4CC[C@@H](C5(N)CC5)C4)c(c32)O1 [Example 1.22, (R)-10-((R)-3-(1-aminocyclopropyl)pyrrolidin-1-yl)-9-fluoro-2-methyl-5-oxo-2,3-dihydro-5H-[1,4]oxazino[2,3,4-ij]quinoline-6-carboxylic acid]	> 32	1 to 32 (≈ 2.58 to 82.6 µM)	1 to 32 (≈ 2.58 to 82.6 µM)	1 to 32 (≈ 2.58 to 82.6 µM)	1 to 32 (≈ 2.58 to 82.6 µM)	> 32	> 32	–
